These results are taken from US20050004218A1, “Vaccenic acid” (priority 2003, published 2005).

In data set [1] the test system is mammary tumors. The data set is described as follows: Bioassay of mammary cancer prevention (MNU-induced mammary carcinogenesis). It counts as in vivo, Female Sprague-Dawley rats. The following applies: CLA 0.05-0.37% (treatments A-D); vaccenic acid 0.73-1.6% (treatments E-G). As to the method:
(§1) Protocol of animal treatment. Female Sprague-Dawley rats were purchased from Charles River Breeding Laboratories (Raleigh, N.C.) at 45 days of age and all subsequent procedures were approved by Roswell Park Cancer Institute Animal Care and Use Committee. Rats were fed the AIN-76 basal diet for 1 week to acclimatize them to the powdered diet. All animals were injected with a single dose of methylnitrosourea (MNU: 50 mg/kg body weight) intraperitoneally at 52 days of age for the induction of mammary tumors. Immediately after MNU administration, a total of 210 rats were divided into 7 groups of 30 each and maintained on different dietary treatments for the following 24 weeks. Throughout this period, rats were palpated weekly to determine the appearance, size, and location of mammary tumors. The experiment was terminated at 24 weeks after MNU administration. All tumors were excised and fixed for histological examination and only confirmed carcinomas are reported in data summaries. Randomly-selected subsets of nine rats from each treatment were necropsied. The tumor-free inguinal mammary fat pad, a portion of the liver, and plasma were retrieved. […]
(§2) Statistical analyses. Fatty acid composition data were analyzed statistically by the General Linear Model procedure of SAS (SAS Inc., Cary, N.C.). […]

A short description of data set [2]: Fatty acid analysis of liver, plasma and mammary fat pad lipids (Example 1). It is filed as in vivo, Female Sprague-Dawley rats. On the procedure:
as §1, with “administration.” for “administration. All tumors were excised and fixed for histological examination and only confirmed carcinomas are reported in data summaries. Randomly-selected subsets of nine rats from each treatment were necropsied. The tumor-free inguinal mammary fat pad, a portion of the liver, and plasma were retrieved.”
Fatty acid analysis. […] However, because these typically yielded far less lipid, quantities of all reagents for methylation were adjusted to compensate for the reduced yield.
Fatty acid methyl esters were analyzed by gas chromatography (Hewlett Packard GC system 6890+with flame ionization detector) using a CP-Sil 88 capillary column (100 m×0.25 mm i.d. with 0.2 μm film thickness; Varian Inc.). […]
as §2

As to `CCCCCC/C=C/C=C\CCCCCCCC(=O)O` [cis-9, trans-11 CLA, cis-9, trans-11 octadecadienoic acid, reference compound], in data set [1], the “Effect of increasing dietary intake on tumor incidence (in words)” value is reported as “the decrease was not statistically significant”.
Consider `CCCCCC/C=C/CCCCCCCCCC(=O)O` [vaccenic acid, trans-11 octadecenoic acid], for which, in data set [1], the “Effect of increasing dietary intake on tumor incidence (in words)” value was “distinct inhibitory response to vaccenic acid which was dose-dependent”. The “Tissue and plasma concentrations of vaccenic acid with increasing intake (in words)” value in data set [2] (FIG. 1) is “increased”. In data set [2] (liver, plasma, mammary fat pad, FIG. 3), the “Content of cis-9, trans-11 CLA within each tissue with increasing supply of vaccenic acid (in words)” value is “linearly increased”.
